Assays:
Format in all cases: cell-based
[1] = tested on: TNF-alpha expression in primary human CD14+ cells; test: TNF-alpha ELISA in LPS-stimulated human CD14+ monocyte-derived macrophages; conditions: 2 hr LPS+4 hr Tx
Protocol: All chemicals, unless otherwise indicated, were procured from Sigma-Aldrich and used without additional purification. Stock solutions of Docosahexaenoic acid (DHA) in Dimethyl Sulfoxide (DMSO), Aspirin in physiologically buffered saline (PBS, pH 7.4) were prepared prior to their use. E. Coli derived Lipopolysaccharide (LPS) was reconstituted at 1 ug/mL, sterile filtered, and stored at −80 C until needed. RAW 264.7 murine macrophage cell line was obtained from ATCC (Manassas, Va.). Cells were thawed at passage 5 or 6 and were maintained in DMEM complete growth media supplemented with 10% FBS (Hyclone, GE Healthcare)+1% Penn/strep (Gibco) until needed. Peripheral blood derived primary human CD14+monocytes (BioreclamationlVT, Albany, N.Y.) were also maintained in DMEM growth media until needed. […]
(§1) Following each treatment, sample media was tested for inflammatory tumor necrosis factor alpha (TNF-alpha) expression using a commercially available sandwich ELISA kits designed for either mouse or human cells (R&D Systems). Samples showing reduction in TNF-alpha were further analyzed using the Resolvin D1 and Resolvin D2 ELISA kits (Cayman Chemical). Mean and standard deviations were calculated for each analyte. ELISA results were normalized to the total protein readings of each well. […]

[2] = tested on: Resolvin D1 (RvD1) expression and release; test: Resolvin D1 ELISA, LPS-challenged human macrophages
Protocol: (§2) All chemicals, unless otherwise indicated, were procured from Sigma-Aldrich and used without additional purification. Stock solutions of Docosahexaenoic acid (DHA) in Dimethyl Sulfoxide (DMSO), Aspirin in physiologically buffered saline (PBS, pH 7.4) were prepared prior to their use. E. Coli derived Lipopolysaccharide (LPS) was reconstituted at 1 ug/mL, sterile filtered, and stored at −80 C until needed. RAW 264.7 murine macrophage cell line was obtained from ATCC (Manassas, Va.). Cells were thawed at passage 5 or 6 and were maintained in DMEM complete growth media supplemented with 10% FBS (Hyclone, GE Healthcare)+1% Penn/strep (Gibco) until needed. Peripheral blood derived primary human CD14+monocytes (BioreclamationlVT, Albany, N.Y.) were also maintained in DMEM growth media until needed. Prior to experimentation, monocytes were differentiated to macrophages by using macrophage colony stimulating factor (M-CSF) at 25 ng/mL in media for up to three days or until cells had reached near confluence (˜95%). RAW 264.7 cells were seeded at roughly 5,000 cells per well in a 96-well plate and allowed to grow to near confluence. At confluence, cells were pre-treated with LPS for 2 hours. At the 2-hour mark, cells were treated with DMEM media containing DMSO (1% w/w, negative control), Aspirin (positive control, 10 nmol/L), DHA (100 umol/L) or a combination of the two. Bio-active composite material Hydroxyapatite-Docosahexaenoic acid (HA-DHA) was dispersed in DMSO and delivered at similar concentrations as DHA alone (described above). Cells were harvested at 2, 4, and 6 hours after LPS stimulation. Human CD14+ cells were seeded at roughly 3.3*10^4 cells per well in a 96-well plate and treated with MCSF until full confluence. Cells were treated with LPS for 2 hours, at which time they were exposed to the same treatments described above for RAW 264.7 cells. Cells were harvested at 4 and 6 hours. […]
as §1
(§3) To investigate further the anti-inflammatory effects the inventors observed in both human and murine macrophages challenged with pathogenic LPS and to determine if the bio-active composite material HA-DHA on its' own and in combination with Aspirin induces formation of pro-resolution mediators, the inventors measured Resolvin production secreted from challenged human macrophages.

[3] = tested on: Resolvin D2 (RvD2) expression and release; test: Resolvin D2 ELISA, LPS-challenged human macrophages
Protocol: as §2, §1, §3

[4] = earlier time point (FIG. 19, Table 2)
[5] = 2 hours LPS + 6 hours treatment (Table 5)

Row | Structure (SMILES) | TNF-alpha expression (Mean) [1] | Resolvin D1 (RvD1) expression and release (Mean) ([2]; 2-hour+6-hour Tx (Table 3)) | Resolvin D1 (RvD1) expression and release (Mean) [2, 4] | Resolvin D2 (RvD2) expression (Mean) ([3]; 2 hour LPS+4 hr Tx (Table 4)) | Resolvin D2 (RvD2) expression (Mean) [3, 5]
1 | CC/C=C\C/C=C\C/C=C\C/C=C\C/C=C\C/C=C\CCC(=O)O [DHA, 4Z, 7Z, 10Z, 13Z, 16Z, 19Z)-docosa-4,7,10,13,16,19-hexaenoic acid] | 10.5 pg/µg | 678 | 771.1 | 194.2 | 161.9
2 | CC(=O)Oc1ccccc1C(=O)O [Aspirin] | 9.1 pg/µg | 16.96 | 18.87 | 25.02 | 73.25
